Source: US8999970B2, “Administration of an anti-obesity compound to individuals with renal impairment” (Arena Pharmaceuticals, Inc., priority 2010, dated 2015)
Where “and” joins values, the source holds several entries; their conditions need not be identical. Identical values can stand only once.

Assays:
[1] = APD356-009 study: M1 Cmax at Week 12 following lorcaserin 10 mg BID
[2] = Creatinine and creatinine clearance during 52 weeks in pooled phase 3 studies; type: in vivo, human
Protocol: Few patients in the APD356-009 trial developed creatinine values above or creatinine clearance values below normal (Table 12). At study entry, no patient had creatinine clearance less than 30 mL/min, and only 4 (1 randomized to lorcaserin, 3 to placebo) had values below 40 mL/min based on ideal body weight. […] Given the small number of patients with moderate or greater renal impairment in the phase 3 studies, a meaningful evaluation of the relationship between adverse events and renal impairment is not possible.

[3] = Toxicity studies in mice (determination of NOAEL); type: in vivo, mouse
Protocol: In the mouse, seizures occurred at single doses of 100 and 300 mg/kg lorcaserin, and death followed single doses of 1000 and 2000 mg/kg. In repeat dose studies in mice, mortality occurred at
doses ≧200 mg/kg. A dose of 250 mg/kg/day produced exposure multiples of 25 and 27 times (males and females) the exposure achieved in humans at a dose of 10 mg BID. At this dose, decreased red blood cell mass, increased reticulocytosis, increased liver weight, centrilobular hepatocellular hypertrophy, increased extramedullary hematopoeisis, and thymic necrosis occurred. The NOAEL in mice was 50 mg/kg/day, which produced exposure multiples of 7.6 and 2.3 (males and females) times the exposure in humans at 10 mg BID.

[4] = Adverse events in the renal impairment clinical study APD356-016; type: in vivo, human
Text: The incidence of adverse events was not related to severity of renal impairment. Events considered possibly or probably related to lorcaserin included 1 event each of abdominal pain (moderate group), diarrhea (moderate group), dyspepsia (mild group), stomach discomfort (mild group), and worsening renal impairment (moderate group). Two events of dizziness (1 in severe group, one in ESRD group) and 3 events of headache (2 normal, 1 moderate group) were considered possibly/probably related to study drug. A summary of the Treatment Emergent Adverse Events in the APD356-016 study by renal impairment groups and relationship to study drug are listed in Table 11.

For `C[C@H]1CN(S(=O)(=O)O)CCc2ccc(Cl)cc21` [Compound M1, lorcaserin sulfamate], the “Mean Cmax observed in patients” value [1] was 196 ng/mL.
With `C[C@H]1CNCCc2ccc(Cl)cc21` [Lorcaserin, (R)-8-chloro-1-methyl-2,3,4,5-tetrahydro-1H-3-benzazepine] the “Creatinine Clearance at Last Observation (Ideal Body Weight), Mean (SEM) Change from Baseline” value ([2]; Any Lorcaserin Dose, N 3746) was 0.25 (0.165), the “Creatinine Clearance at Last Observation (Ideal Body Weight), Mean (SEM) Change from Baseline” value ([2]; Lorcaserin 10 mg BID Pooled, N 2992) was 0.47 (0.181) and the NOAEL ([3]; both sexes, mouse, in vivo, mice) was 50 mg/kg/day. For the same compound, the “Exposure multiple of human exposure at 10 mg BID” value (“Exposure multiple” below) ([3]; mice 50 mg/kg/day (NOAEL), females) was 2.3 times, the “Exposure multiple” value ([3]; mice 50 mg/kg/day (NOAEL), males) was 7.6 times and the “Exposure multiple” value ([3]; mice 250 mg/kg/day, females) was 27 times. For the same compound, the “Exposure multiple” value ([3]; mice 250 mg/kg/day, males) was 25 times, the “Doses at which mortality occurred” value ([3]; mice, repeat dose studies) was no less than 200 mg/kg and the “Single doses followed by death” value ([3]; mouse) was 1000 mg/kg and 2000 mg/kg. The “Events of dizziness possibly/probably related” value ([4]; 1 severe group, one ESRD group) was “Two”, the “Events of headache possibly/probably related” value ([4]; 2 normal, 1 moderate group) was 3 and the “Number (%) of Subjects Reporting AEs” value ([4]; End Stage (N = 8)) was 1 (12.5%). For the same compound, the “Number (%) of Subjects Reporting AEs By Maximum Intensity: Mild” value (shortened to “Number (%) … Mild”) ([4]; End Stage (N = 8)) was 1 (12.5%), the “Number (%) of Subjects Reporting AEs By Maximum Intensity: Moderate” value (“Number (%) … Moderate” for short) ([4]; End Stage (N = 8)) was 0 (0.0%) and the “Number (%) of Subjects Reporting AEs By Maximum Intensity: Severe” value (“Number (%) … Severe” below) ([4]; End Stage (N = 8)) was 0 (0.0%). The “Number (%) of Subjects Reporting AEs By Most Direct Relationship to Study Treatment: Not Related” value (“Number (%) … Not Related” for short) ([4]; End Stage (N = 8)) was 1 (12.5%), the “Number (%) of Subjects Reporting AEs By Most Direct Relationship to Study Treatment: Possible” value (shortened to “Number (%) … Possible”) ([4]; End Stage (N = 8)) was 0 (0.0%) and the “Number (%) of Subjects Reporting AEs By Most Direct Relationship to Study Treatment: Probable” value (“Number (%) … Probable” for short) ([4]; End Stage (N = 8)) was 0 (0.0%). The “Number (%) of Subjects Reporting AEs By Most Direct Relationship to Study Treatment: Unlikely” value (“Number (%) … Unlikely” below) ([4]; End Stage (N = 8)) was 0 (0.0%), the “Number of AEs Reported” value ([4]; End Stage (N = 8)) was 1 and the “Number (%) of Subjects Reporting AEs” value ([4]; Mild (N = 8)) was 2 (25.0%). The “Number (%) … Mild” value ([4]; Mild (N = 8)) was 2 (25.0%), the “Number (%) … Moderate” value ([4]; Mild (N = 8)) was 0 (0.0%) and the “Number (%) … Severe” value ([4]; Mild (N = 8)) was 0 (0.0%). For the same compound, the “Number (%) … Not Related” value ([4]; Mild (N = 8)) was 0 (0.0%), the “Number (%) … Possible” value ([4]; Mild (N = 8)) was 1 (12.5%) and the “Number (%) … Probable” value ([4]; Mild (N = 8)) was 1 (12.5%). For the same compound, the “Number (%) … Unlikely” value ([4]; Mild (N = 8)) was 0 (0.0%), the “Number of AEs Reported” value ([4]; Mild (N = 8)) was 3 and the “Number (%) of Subjects Reporting AEs” value ([4]; Moderate (N = 8)) was 5 (62.5%). The “Number (%) … Mild” value ([4]; Moderate (N = 8)) was 4 (50.0%), the “Number (%) … Moderate” value ([4]; Moderate (N = 8)) was 1 (12.5%) and the “Number (%) … Severe” value ([4]; Moderate (N = 8)) was 0 (0.0%). For the same compound, the “Number (%) … Not Related” value ([4]; Moderate (N = 8)) was 1 (12.5%), the “Number (%) … Possible” value ([4]; Moderate (N = 8)) was 3 (37.5%) and the “Number (%) … Probable” value ([4]; Moderate (N = 8)) was 0 (0.0%). The “Number (%) … Unlikely” value ([4]; Moderate (N = 8)) was 1 (12.5%), the “Number of AEs Reported” value ([4]; Moderate (N = 8)) was 9 and the “Number (%) of Subjects Reporting AEs” value ([4]; Normal (N = 8)) was 4 (50.0%). For the same compound, the “Number (%) … Mild” value ([4]; Normal (N = 8)) was 4 (50.0%), the “Number (%) … Moderate” value ([4]; Normal (N = 8)) was 0 (0.0%) and the “Number (%) … Severe” value ([4]; Normal (N = 8)) was 0 (0.0%). For the same compound, the “Number (%) … Not Related” value ([4]; Normal (N = 8)) was 0 (0.0%), the “Number (%) … Possible” value ([4]; Normal (N = 8)) was 1 (12.5%) and the “Number (%) … Probable” value ([4]; Normal (N = 8)) was 1 (12.5%). For the same compound, the “Number (%) … Unlikely” value ([4]; Normal (N = 8)) was 2 (25.0%), the “Number of AEs Reported” value ([4]; Normal (N = 8)) was 4 and the “Number (%) of Subjects Reporting AEs” value ([4]; Severe (N = 8)) was 3 (37.5%). The “Number (%) … Mild” value ([4]; Severe (N = 8)) was 3 (37.5%), the “Number (%) … Moderate” value ([4]; Severe (N = 8)) was 0 (0.0%) and the “Number (%) … Severe” value ([4]; Severe (N = 8)) was 0 (0.0%). For the same compound, the “Number (%) … Not Related” value ([4]; Severe (N = 8)) was 0 (0.0%), the “Number (%) … Possible” value ([4]; Severe (N = 8)) was 1 (12.5%) and the “Number (%) … Probable” value ([4]; Severe (N = 8)) was 0 (0.0%). The “Number (%) … Unlikely” value ([4]; Severe (N = 8)) was 2 (25.0%), the “Number of AEs Reported” value ([4]; Severe (N = 8)) was 4 and the “Relation of incidence of adverse events to severity of renal impairment” value ([4]; human, in vivo) was “not related”. For the same compound, the “Events of dyspepsia possibly or probably related” value ([4]; mild group) was 1, the “Events of stomach discomfort possibly or probably related” value ([4]; mild group) was 1 and the “Events of abdominal pain possibly or probably related” value ([4]; moderate group) was 1. The “Events of diarrhea possibly or probably related” value ([4]; moderate group) was 1 and the “Events of worsening renal impairment possibly or probably related” value ([4]; moderate group) was 1.
